Measured values from PubChem BioAssay (NCI).
Where “and” joins values, the source holds several entries; their conditions need not be identical. Identical values can stand only once.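 Results reflect a 48-hour exposure of cells in 96-well plates to compound at five concentrations. Abbreviation: GI50, concentration required for 50% inhibition of growth. Definition used: TGI = concentration required for complete inhibition of growth.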

Experiments:
Experiment in all cases: DTP human tumour cell line panel, 48 h
[1] = system: CAKI-1 renal
[2] = system: HOP-92 NSCLC
[3] = system: HT29 colon
[4] = system: IGROV1 ovarian
[5] = system: SF-295 CNS
[6] = system: SF-539 CNS
[7] = system: SN12C renal
[8] = system: TK-10 renal
[9] = system: U251 CNS
[10] = system: UO-31 renal

Structure (SMILES) | GI50 [1] | TGI [1] | GI50 [2] | TGI [2] | GI50 [3] | TGI [3] | GI50 [4] | TGI [4] | GI50 [5] | TGI [5] | GI50 [6] | TGI [6] | GI50 [7] | TGI [7] | GI50 [8] | TGI [8] | GI50 [9] | TGI [9] | GI50 [10] | TGI [10]
COc1cc2c3c(n(C)c(=O)c2cc1OC)-c1ccc(C#N)cc1C3=O | > 100 µM | > 100 µM | > 100 µM | > 100 µM | > 100 µM | > 100 µM | 30.5 µM | > 100 µM | 73.7 µM | > 100 µM | > 100 µM | > 100 µM | > 100 µM | > 100 µM | > 100 µM | > 100 µM | 84.9 µM | > 100 µM | > 100 µM | > 100 µM
O=C1Cc2cc(C(=O)NC3C[C@H]4CC[C@@H](C3)N4S(=O)(=O)CC3CCN(CCCC(F)(F)F)CC3)c(Cl)cc2N1 (some centres undefined) | > 100 µM | > 100 µM | 67.7 µM | > 100 µM | > 100 µM | > 100 µM | > 100 µM | > 100 µM | > 100 µM | > 100 µM | > 100 µM | > 100 µM | > 100 µM | > 100 µM | > 100 µM | > 100 µM | > 100 µM | > 100 µM | > 100 µM | > 100 µM
CC(=O)NNc1nc(C)c(C(=O)NNC(=O)C(=O)Nc2ccc(Cl)cc2Cl)s1 |  | 75.5 µM |  | 70.9 µM |  | > 100 µM |  | > 100 µM |  | > 100 µM |  | 99.5 µM |  | > 100 µM |  | > 100 µM |  | 82.6 µM |  | 98.2 µM
CCCCCCCCCCCCCC[C@@H](O)[C@H]1CC[C@H]([C@H]2CC[C@H]([C@H](O)CCCCCC[C@@H](O)CC3=C[C@H](C)OC3=O)O2)O1 | 1.75 µM | 5.01 µM and > 25 µM | > 25 µM | 8.37 µM and > 25 µM | > 25 µM | 3.3 µM and > 25 µM | 2.61 µM | 8.75 µM and > 25 µM | 1.18 µM | > 25 µM | 2.25 µM | 6.85 µM and > 25 µM | > 25 µM | 6.47 µM and > 25 µM | 2.72 µM | 8.15 µM and > 25 µM | 2.06 µM | > 25 µM | 1.21 µM | 2.59 µM and > 25 µM
CN1C(=O)C2(c3ccccc31)N(c1ccc(Cl)cc1)C(=O)C2(c1ccccc1)c1ccccc1 (centres undefined) | > 100 µM | > 100 µM | 5.62 µM | 49.1 µM | 11 µM | > 100 µM | > 100 µM | > 100 µM | 11 µM | > 100 µM | > 100 µM | > 100 µM | 94.3 µM | > 100 µM | > 100 µM | > 100 µM | 45.5 µM | > 100 µM | 27.9 µM | > 100 µM
COC(=O)[C@H]1CCCN1C(=O)[C@H]1CCCN1C(=O)[C@H](Cc1c[nH]c2ccccc12)NC(=S)Nc1cc(C(F)(F)F)cc(C(F)(F)F)c1 | 15 µM | > 100 µM | 1.7 µM | 6.97 µM | 2.95 µM | 8.72 µM | 6.97 µM | > 100 µM | 2.77 µM | 12.9 µM | 3.93 µM | 30.4 µM | 7.32 µM | > 100 µM | 12.7 µM | > 100 µM | 4.21 µM | 61.9 µM | 18.5 µM | > 100 µM
O=C(CN1C(=O)S/C(=C\C(Cl)=C\c2ccccc2)C1=O)NC1C=CS(=O)(=O)C1 (centres undefined) | 1.65 µM | 4.23 µM | 1.67 µM | 5.75 µM | 1.92 µM | 6.72 µM | 1.31 µM | 4.31 µM | 2.32 µM | 5.19 µM | 2 µM | 4.76 µM | 1.27 µM | 5.51 µM | 2.08 µM | 6.61 µM | 1.88 µM | 5.9 µM | 1.37 µM | 2.79 µM
COc1ccc(N(C)c2nc(N)nc3sc4c(c23)CCCC4)cc1 | < 0.0137 µM | 15.4 µM | < 0.0187 µM | 6.81 µM | < 0.01 µM | 12.1 µM | < 0.01 µM | 13 µM | < 0.01 µM | 13.1 µM | < 0.01 µM |  | < 0.01 µM | 14 µM | < 0.0278 µM | 22 µM | < 0.0114 µM | 15 µM | < 0.01 µM | 14.2 µM
